# Data taken from patent EP4685153A1 (priority 2023, dated 2024).
# Residues, ends and D or L forms follow the SMILES beside them. *: point of attachment. Succinyl(4-O-cholesteryl) = CC(C)CCC[C@@H](C)[C@H]1CC[C@H]2[C@@H]3CC=C4C[C@@H](OC(=O)CCC(=O)*)CC[C@]4(C)[C@H]3CC[C@]12C
# Experiments:
# [1] = tested on: T20-resistant mutant strains (HIV-1 strain NL4-3); conditions: T20-resistant mutant strains ( strain NL4-3, 48 h)
# N44 = N44 (Human immunodeficiency virus type 1 group M subtype B, UniProt P04578); experiment: Circular dichroism of lipopeptide complex with target sequence N44; conditions: CD; for Tm value of the mixture with N44: [θ]222, 20-98 °C at 2 °C/min; for α-helix content of the mixture with N44: lipopeptide and N44 each 10 µM in PBS pH 7.2
# [2] = tested on: HIV-1 strain JRFL pseudovirus; conditions: for IC50: strain JRFL pseudovirus
# [3] = tested on: HIV-1 strain NL4-3 pseudovirus; conditions: for IC50: strain NL4-3 pseudovirus
# [4] = Circular dichroism of lipopeptide alone; assay type: physicochemical; conditions: CD, 10 µM in PBS pH 7.2
# [5] = tested on: HIV-1 strain SG3.1 living virus; conditions: for IC50: strain SG3.1 living virus
# [6] = LP-124 versus LP-122, LP-125 versus LP-123
# Sequence of N44 (P04578 538-581): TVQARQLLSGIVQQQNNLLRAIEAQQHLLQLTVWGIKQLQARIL
Compound,IC50 [1] [nM],Tm value of the mixture with N44 (N44) [°C],α-helix content of the mixture with N44 (N44) [%],IC50 [2] [nM],IC50 [3] [nM],"α-helix content, lipopeptide alone [4] [%]",IC50 [5] [nM],"activity increased as compared to its template, JRFL pseudovirus [2, 6] [folds]","activity increased as compared to its template, NL4-3 pseudovirus [3, 6]","activity increased as compared to its template, SG3.1 living virus [5, 6] [folds]"
"CC[C@H](C)[C@H](NC(=O)[C@H](CCCCN)NC(=O)[C@H](CCC(N)=O)NC(=O)[C@H](CCC(=O)O)NC(=O)[C@H](Cc1ccc(O)cc1)NC(C)=O)C(=O)N[C@@H](CCC(=O)O)C(=O)N[C@@H](CCC(=O)O)C(=O)N[C@@H](CC(C)C)C(=O)N[C@@H](CC(C)C)C(=O)N[C@@H](CCCCN)C(=O)N[C@@H](CCCCN)C(=O)N[C@@H](C)C(=O)N[C@@H](CCC(=O)O)C(=O)N[C@@H](CCC(=O)O)C(=O)N[C@@H](CCC(N)=O)C(=O)N[C@@H](CCC(N)=O)C(=O)N[C@@H](CCCCN)C(=O)N[C@@H](CCCCN)C(=O)N[C@@H](CC(N)=O)C(=O)N[C@@H](CCC(=O)O)C(=O)N[C@@H](CCC(=O)O)C(=O)N[C@@H](CC(C)C)C(=O)N[C@@H](CCCCN)C(=O)N[C@@H](CCCCN)C(=O)N[C@@H](CC(C)C)C(=O)N[C@@H](CCC(=O)O)C(=O)N[C@@H](CCCCNC(=O)CCC(=O)O[C@H]1CC[C@@]2(C)C(=CC[C@H]3[C@@H]4CC[C@H]([C@H](C)CCCC(C)C)[C@@]4(C)CC[C@@H]32)C1)C(N)=O [LP-98, reference compound] (Ac-YEQKIEELLKKAEEQQKKNEELKKLEK(Succinyl(4-O-cholesteryl))-NH2)",2.66,,,,,,,,,
CC[C@H](C)[C@H](NC(=O)[C@H](CCCCN)NC(=O)[C@H](CCCCN)NC(=O)[C@H](CCC(=O)O)NC(=O)[C@H](Cc1c[nH]c2ccccc12)NC(=O)[C@H](CCC(=O)O)NC(=O)[C@H](CCC(=O)O)NC(=O)[C@H](Cc1c[nH]c2ccccc12)NC(=O)[C@@H](NC(=O)[C@H](CCSC)NC(=O)[C@H](CCC(=O)O)NC(C)=O)[C@@H](C)O)C(=O)N[C@@H](CCC(=O)O)C(=O)N[C@@H](CCC(=O)O)C(=O)N[C@@H](CC(C)C)C(=O)N[C@@H](CCC(=O)O)C(=O)N[C@@H](CCCCN)C(=O)N[C@@H](CCCCN)C(=O)N[C@H](C(=O)N[C@@H](CCC(=O)O)C(=O)N[C@@H](CCC(=O)O)C(=O)N[C@@H](CC(C)C)C(=O)N[C@@H](CC(C)C)C(=O)N[C@@H](CCCCN)C(=O)N[C@@H](CCCCN)C(=O)N[C@@H](C)C(=O)N[C@@H](CCC(=O)O)C(=O)N[C@@H](CCC(=O)O)C(=O)N[C@@H](CCC(N)=O)C(=O)N[C@@H](CCC(N)=O)C(=O)N[C@@H](CCCCN)C(=O)N[C@@H](CCCCN)C(=O)N[C@@H](CC(N)=O)C(=O)N[C@@H](CCC(=O)O)C(=O)N[C@@H](C)C(=O)N[C@@H](C)C(=O)N[C@@H](C)C(=O)N[C@@H](CCCCN)C(=O)N[C@@H](CCCCNC(=O)CCC(=O)O[C@H]1CC[C@@]2(C)C(=CC[C@H]3[C@@H]4CC[C@H]([C@H](C)CCCC(C)C)[C@@]4(C)CC[C@@H]32)C1)C(N)=O)[C@@H](C)CC [LP-121] (Ac-EMTWEEWEKKIEELEKKIEELLKKAEEQQKKNEAAAKK(Succinyl(4-O-cholesteryl))-NH2),,> 98,81,0.0424,0.052,69,0.00988,,,
CC[C@H](C)[C@H](NC(=O)[C@H](CCCCN)NC(=O)[C@H](CCCCN)NC(=O)[C@H](CCC(=O)O)NC(=O)[C@H](Cc1c[nH]c2ccccc12)NC(=O)[C@H](CCC(=O)O)NC(=O)[C@H](CCC(=O)O)NC(=O)[C@H](Cc1c[nH]c2ccccc12)NC(=O)[C@@H](NC(C)=O)[C@@H](C)O)C(=O)N[C@@H](CCC(=O)O)C(=O)N[C@@H](CCC(=O)O)C(=O)N[C@@H](CC(C)C)C(=O)N[C@@H](CCC(=O)O)C(=O)N[C@@H](CCCCN)C(=O)N[C@@H](CCCCN)C(=O)N[C@H](C(=O)N[C@@H](CCC(=O)O)C(=O)N[C@@H](CCC(=O)O)C(=O)N[C@@H](CC(C)C)C(=O)N[C@@H](CC(C)C)C(=O)N[C@@H](CCCCN)C(=O)N[C@@H](CCCCN)C(=O)N[C@@H](C)C(=O)N[C@@H](CCC(=O)O)C(=O)N[C@@H](CCC(=O)O)C(=O)N[C@@H](CCC(N)=O)C(=O)N[C@@H](CCC(N)=O)C(=O)N[C@@H](CCCCN)C(=O)N[C@@H](CCCCN)C(=O)N[C@@H](CC(N)=O)C(=O)N[C@@H](CCC(=O)O)C(=O)N[C@@H](CCC(N)=O)C(=O)N[C@@H](CCC(=O)O)C(=O)N[C@@H](C)C(=O)N[C@@H](C)C(=O)N[C@@H](C)C(=O)N[C@@H](CCCCN)C(=O)N[C@@H](CCCCNC(=O)CCC(=O)O[C@H]1CC[C@@]2(C)C(=CC[C@H]3[C@@H]4CC[C@H]([C@H](C)CCCC(C)C)[C@@]4(C)CC[C@@H]32)C1)C(N)=O)[C@@H](C)CC [LP-122] (Ac-TWEEWEKKIEELEKKIEELLKKAEEQQKKNEQEAAAKK(Succinyl(4-O-cholesteryl))-NH2),,> 98,81,0.0415,0.0225,65,0.00905,,,
CC[C@H](C)[C@H](NC(=O)[C@H](CCCCN)NC(=O)[C@H](CCCCN)NC(=O)[C@H](CCC(=O)O)NC(=O)[C@H](Cc1ccc(O)cc1)NC(=O)[C@H](CCC(=O)O)NC(=O)[C@H](CCC(=O)O)NC(=O)[C@H](Cc1ccc(O)cc1)NC(=O)[C@@H](NC(C)=O)[C@@H](C)O)C(=O)N[C@@H](CCC(=O)O)C(=O)N[C@@H](CCC(=O)O)C(=O)N[C@@H](CC(C)C)C(=O)N[C@@H](CCC(=O)O)C(=O)N[C@@H](CCCCN)C(=O)N[C@@H](CCCCN)C(=O)N[C@H](C(=O)N[C@@H](CCC(=O)O)C(=O)N[C@@H](CCC(=O)O)C(=O)N[C@@H](CC(C)C)C(=O)N[C@@H](CC(C)C)C(=O)N[C@@H](CCCCN)C(=O)N[C@@H](CCCCN)C(=O)N[C@@H](C)C(=O)N[C@@H](CCC(=O)O)C(=O)N[C@@H](CCC(=O)O)C(=O)N[C@@H](CCC(N)=O)C(=O)N[C@@H](CCC(N)=O)C(=O)N[C@@H](CCCCN)C(=O)N[C@@H](CCCCN)C(=O)N[C@@H](CC(N)=O)C(=O)N[C@@H](CCC(=O)O)C(=O)N[C@@H](CCC(N)=O)C(=O)N[C@@H](CCC(=O)O)C(=O)N[C@@H](C)C(=O)N[C@@H](C)C(=O)N[C@@H](C)C(=O)N[C@@H](CCCCN)C(=O)N[C@@H](CCCCNC(=O)CCC(=O)O[C@H]1CC[C@@]2(C)C(=CC[C@H]3[C@@H]4CC[C@H]([C@H](C)CCCC(C)C)[C@@]4(C)CC[C@@H]32)C1)C(N)=O)[C@@H](C)CC [LP-124] (Ac-TYEEYEKKIEELEKKIEELLKKAEEQQKKNEQEAAAKK(Succinyl(4-O-cholesteryl))-NH2),,86,79,0.00593,0.00207,64,0.00106,~7,about 11 folds,~9
